Test results reported in ChEMBL document CHEMBL1201862, “PubChem BioAssay data set” (2004).
The source made the active and inactive calls.

Legend:
[1] = cytotoxicity in HEK-293T cells, dose response, cytotoxicity control for TCR NF-kB inhibitor project, luminescence, T-cell screen hits (AID 489026); format: functional, cell-based;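 also: cells exposed to compound about 14 hours before the viability readout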
[2] = Concentration-dependent survival of SW480 colon cancer line, luminescence detection with CellTiter-Glo, half-maximal inhibitory concentration (AID 1117338); format: functional
[3] = RKO cell viability reduction, dose response, CellTiter-Glo luminescence (AID 1117322); format: functional
[4] = cytotoxicity toward HCT116 cells – cell-based, CellTiter-Glo luminescence, IC50, dose response (AID 1117332); format: functional; conditions: HCT-116
[5] = SNU-C1 cell viability reduction, dose response, CellTiter-Glo luminescence (AID 1117323); format: functional, cell-based
[6] = cytotoxicity toward Colo320 cells – cell-based, CellTiter-Glo luminescence, IC50, dose response (AID 1117334); format: functional; conditions: COLO 320
[7] = cytotoxicity toward HT-29 cells – cell-based, CellTiter-Glo luminescence, IC50, dose response (AID 1117330); format: functional
[8] = CellTiter-Glo luminescent dose response of DLD-1 viability loss (AID 1117352); format: functional
[9] = HCT116 cell viability decrease, GSK3B pretreatment – CellTiter-Glo, IC50, dose response (AID 1117339); format: functional; conditions: HCT-116
Leucine aminopeptidase = target: T1, Leucine aminopeptidase (Plasmodium falciparum 3D7, UniProt Q8IL11); test: P. falciparum M17LAP inhibitors, primary screen, biochemical, fluorogenic H-Leu-NHMec substrate, 1536-well (AID 1619); format: functional
T1 sequence (Q8IL11 whole entry): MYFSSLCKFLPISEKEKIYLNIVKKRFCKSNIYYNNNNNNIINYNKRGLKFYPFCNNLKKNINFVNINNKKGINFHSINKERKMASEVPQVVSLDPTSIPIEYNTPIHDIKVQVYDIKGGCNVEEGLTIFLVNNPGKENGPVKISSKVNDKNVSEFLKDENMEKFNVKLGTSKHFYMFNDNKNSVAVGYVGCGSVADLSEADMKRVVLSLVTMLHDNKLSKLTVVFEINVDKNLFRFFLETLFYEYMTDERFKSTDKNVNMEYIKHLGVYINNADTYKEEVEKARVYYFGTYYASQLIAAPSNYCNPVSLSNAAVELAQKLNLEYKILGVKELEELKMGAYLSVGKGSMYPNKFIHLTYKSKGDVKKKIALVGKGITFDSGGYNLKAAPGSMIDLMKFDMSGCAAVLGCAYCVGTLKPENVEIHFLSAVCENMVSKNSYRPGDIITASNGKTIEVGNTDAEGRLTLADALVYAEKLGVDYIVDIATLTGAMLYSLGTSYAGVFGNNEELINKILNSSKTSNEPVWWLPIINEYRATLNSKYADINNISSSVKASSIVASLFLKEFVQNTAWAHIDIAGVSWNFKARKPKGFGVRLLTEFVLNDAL

BJ [10] = test: cytotoxicity toward BJ-TERT fibroblasts, dose response, cell-based, RAS-independent, luminescence (AID 1933); format: functional; conditions: Homo sapiens
BJ [11] = test: cells; format: functional, cell-based; conditions: Homo sapiens
BJ [12] = test: cytotoxicity toward BJ-TERT-LT-ST fibroblasts, dose response, cell-based, RAS-independent, luminescence (AID 1935); format: functional; conditions: Homo sapiens;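 also: BJ fibroblasts immortalized with TERT plus LT and ST oncogenes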
[13] = cytotoxicity toward DRD oncogenic fibroblasts, dose response, cell-based, non-viral oncogenic, luminescence (AID 1934); format: functional; conditions: Homo sapiens
[14] = THP-1 cell cytotoxicity, dose response, cytotoxicity control for non-replicating M. tuberculosis project (AID 489025); format: functional
[15] = Luminescence Cell-Based Dose Retest to Confirm Inhibitors of Cancer Stem Cells. [Related pubchem assays (depositor defined):AID2717, AID2721]; format: functional; conditions: Homo sapiens
[16] = HepG2 cell cytotoxicity, dose response, cytotoxicity control for non-replicating M. tuberculosis project (AID 489018); format: functional; conditions: Mycobacterium tuberculosis
[17] = Vero E6 cell cytotoxicity, dose response, cytotoxicity control for non-replicating M. tuberculosis project, secondary assay (AID 492998); format: functional, VeroE6; conditions: Vero C1008
cells = format: functional
[18] = Shn3 3'UTR reporter inhibitors, dose response, cell-based, Clone20 osteoblasts, firefly luciferase, cherry-picked (AID 624132); format: functional;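 also: firefly luciferase luminescence from reporter carrying the Shn3 3'UTR in osteoblasts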
[19] = HepG2 cell cytotoxicity, dose response, cytotoxicity control for Shn3 inhibitor project, CellTiter-Glo, cherry-picked (AID 624134); format: functional, cell-based
[20] = control 3'UTR Renilla luciferase suppression, dose response, counter-screen for Shn3 inhibitor project, cell-based, Clone20-Shn3RL, cherry-picked (AID 624133); format: functional
[21] = target: Glyceraldehyde-3-phosphate dehydrogenase (Homo sapiens, UniProt P04406)
[22] = target: T2, Alkaline phosphatase, tissue-nonspecific isozyme (Homo sapiens, UniProt P05186); test: human TNAP enzyme inhibitors, SAR follow-up, biochemical, luminescent, dose response (AID 1056)
T2 sequence (P05186 whole entry): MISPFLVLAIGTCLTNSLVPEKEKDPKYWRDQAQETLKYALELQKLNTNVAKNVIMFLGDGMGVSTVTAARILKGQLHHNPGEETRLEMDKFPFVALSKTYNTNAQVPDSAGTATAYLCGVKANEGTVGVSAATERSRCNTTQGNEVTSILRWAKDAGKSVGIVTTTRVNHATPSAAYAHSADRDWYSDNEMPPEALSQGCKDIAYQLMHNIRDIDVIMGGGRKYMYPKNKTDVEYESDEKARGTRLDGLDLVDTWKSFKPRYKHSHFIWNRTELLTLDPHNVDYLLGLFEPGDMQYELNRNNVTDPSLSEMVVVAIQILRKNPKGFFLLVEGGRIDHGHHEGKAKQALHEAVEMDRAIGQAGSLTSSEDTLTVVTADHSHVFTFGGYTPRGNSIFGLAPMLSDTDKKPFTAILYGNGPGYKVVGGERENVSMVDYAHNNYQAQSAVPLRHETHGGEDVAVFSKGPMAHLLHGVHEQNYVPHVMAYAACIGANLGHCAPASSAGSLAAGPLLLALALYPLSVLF

Genome polyprotein = Genome polyprotein (dengue virus type 2, UniProt P29990); test: Dengue-2 NS5 methyltransferase inhibitors, primary screen, biochemical, confirmation dose response (AID 588689); format: functional
[23] = A549 cell cytotoxicity, dose response, cytotoxicity control, plate reader, cherry-pick, antagonist series (AID 743412); format: functional, cell-based
[24] = MC4R antagonists, dose response, counter-screen for LGR2 antagonist project, cell-based, plate reader, cherry pick (AID 743444); format: functional;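 also: transfected HEK 293 cells stimulated with alpha-MSH peptide; potency of inhibitors of the alpha-MSH evoked signal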

Sequence of Glyceraldehyde-3-phosphate dehydrogenase (P04406 whole entry): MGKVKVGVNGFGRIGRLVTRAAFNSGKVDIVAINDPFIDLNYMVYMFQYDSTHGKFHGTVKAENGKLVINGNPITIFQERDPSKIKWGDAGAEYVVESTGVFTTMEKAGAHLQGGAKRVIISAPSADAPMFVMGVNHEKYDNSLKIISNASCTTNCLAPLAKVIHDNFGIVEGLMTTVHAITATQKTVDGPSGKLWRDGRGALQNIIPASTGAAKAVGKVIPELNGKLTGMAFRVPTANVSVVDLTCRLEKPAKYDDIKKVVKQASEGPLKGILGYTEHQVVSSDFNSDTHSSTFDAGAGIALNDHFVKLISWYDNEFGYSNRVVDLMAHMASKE
Sequence of Genome polyprotein (P29990 2492-3391 limits assumed): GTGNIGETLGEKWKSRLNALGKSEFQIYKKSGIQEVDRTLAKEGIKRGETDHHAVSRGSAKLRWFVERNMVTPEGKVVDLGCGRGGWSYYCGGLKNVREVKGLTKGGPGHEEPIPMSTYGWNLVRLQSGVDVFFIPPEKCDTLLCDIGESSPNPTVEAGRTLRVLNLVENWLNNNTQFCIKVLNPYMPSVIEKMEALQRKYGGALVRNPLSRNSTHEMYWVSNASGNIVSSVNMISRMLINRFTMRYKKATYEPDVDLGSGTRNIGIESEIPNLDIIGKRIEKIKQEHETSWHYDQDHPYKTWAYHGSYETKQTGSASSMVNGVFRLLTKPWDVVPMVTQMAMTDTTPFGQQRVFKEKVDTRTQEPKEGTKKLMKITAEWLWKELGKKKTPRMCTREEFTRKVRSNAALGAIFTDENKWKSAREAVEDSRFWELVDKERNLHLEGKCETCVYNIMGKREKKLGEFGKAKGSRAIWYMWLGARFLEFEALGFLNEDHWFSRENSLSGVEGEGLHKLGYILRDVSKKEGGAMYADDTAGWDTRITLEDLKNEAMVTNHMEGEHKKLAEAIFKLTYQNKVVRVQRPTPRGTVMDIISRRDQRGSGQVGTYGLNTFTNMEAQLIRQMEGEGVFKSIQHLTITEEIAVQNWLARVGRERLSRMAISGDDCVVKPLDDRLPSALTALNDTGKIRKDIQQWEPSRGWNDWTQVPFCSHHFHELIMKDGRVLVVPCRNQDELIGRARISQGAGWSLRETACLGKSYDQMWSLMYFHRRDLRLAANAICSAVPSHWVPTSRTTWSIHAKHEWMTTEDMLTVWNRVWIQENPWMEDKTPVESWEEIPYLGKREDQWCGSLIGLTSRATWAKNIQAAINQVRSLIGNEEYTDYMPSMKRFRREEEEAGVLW

CCCc1cc(C(=O)N/N=C/c2ccc(CC)s2)c2ccccc2n1
IC50 [1]: > 80 µM (inactive)

CCCCN1CCCC1C(=O)Nc1c(C)cc(C)cc1C (centres undefined) [BUMECAINE]
IC50 [2]: > 20 µM (inactive)
IC50 [3]: > 20 µM (inactive)
IC50 [4]: > 20 µM (inactive)
IC50 [5]: > 20 µM (inactive)
IC50 [6]: > 20 µM (inactive)
IC50 [7]: > 20 µM (inactive)
IC50 [8]: > 20 µM (inactive)
IC50 [9]: > 20 µM (inactive)

O=C(O)CCc1nnc(SCC(=O)Nc2ccc(Br)cc2)nc1O
IC50 (Leucine aminopeptidase): 2.45 µM (active)

Cc1cc(S(=O)(=O)c2ccc([N+](=O)[O-])cn2)ccc1Br
EC50 (BJ [10]): 3.26 µM (active)
EC50 (BJ [11]): 17.6 µM (active)
EC50 (BJ [12]): 17 µM (active)
EC50 [13]: 6.93 µM (inconclusive)
CC50 [14]: 12.2 µM (active)
AC50 [15]: 1.86 µM (active)
CC50 [16]: 18 µM (active)
CC50 [17]: 13.6 µM (active)
IC50 (cells): 0.68 µM (active)
AC50 [18]: 3.69 µM (active)
AC50 [19]: 21.4 µM (active)
AC50 [20]: 17.5 µM (active)

CCOc1ccc(S(=O)(=O)Nc2nc3ccccc3nc2Cl)cc1
IC50 [21]: > 100 µM (not active)
IC50 [22]: > 100 µM (inactive)

O=C(O)COc1ccccc1/C=C1\SC(=O)N(Cc2ccc(F)cc2)C1=O
IC50 (Leucine aminopeptidase): 34.8 µM (active)

CCCCCCSc1nc(O)c(C2OC(=O)c3c2ccc(OC)c3OC)c(=O)n1CC (centres undefined)
IC50 (Leucine aminopeptidase): 3 µM (active)
IC50 (Genome polyprotein): 56.9 µM (active)

Cn1nc(C(=O)O)cc1-c1ccc(F)cc1
IC50 [21]: > 100 µM (not active)
IC50 [22]: > 100 µM (inactive)

O=C(Cc1ccncc1)NCC[C@H]1CC[C@H](NC(=O)C2CCCC2)[C@H](CO)O1
AC50 [23]: > 52 µM (inactive)
AC50 [24]: 42.1 µM (active)

CC1(C)[C@H](C=C(Cl)Cl)[C@@H]1C(=O)OCc1c(F)c(F)cc(F)c1F
IC50 [2]: > 20 µM (inactive)
IC50 [3]: > 20 µM (inactive)
IC50 [4]: > 20 µM (inactive)
IC50 [5]: > 20 µM (inactive)
IC50 [6]: > 20 µM (inactive)
IC50 [7]: > 20 µM (inactive)
IC50 [8]: > 20 µM (inactive)
IC50 [9]: > 20 µM (inactive)
